Results reported in ChEMBL document CHEMBL1208707, “T-type calcium channel blockers: spiro-piperidine azetidines and azetidinones-optimization, design and synthesis” (Bioorg Med Chem Lett, 2010).
The source made the active and inactive calls. The calls are words filed in the database; no cut-off is given here.

Legend:
[1] = AUC in po dosed rat; assay type: ADME, organism-based; details: plasma
[2] = target: T1, Voltage-dependent T-type calcium channel subunit alpha-1H (Homo sapiens, UniProt O95180); assay: Inhibition of human CaV3.2 expressed in HEK293 cells at -100 mV membrane potential by Ionworks HT assay; assay type: cell-based
T1 sequence (O95180 whole entry): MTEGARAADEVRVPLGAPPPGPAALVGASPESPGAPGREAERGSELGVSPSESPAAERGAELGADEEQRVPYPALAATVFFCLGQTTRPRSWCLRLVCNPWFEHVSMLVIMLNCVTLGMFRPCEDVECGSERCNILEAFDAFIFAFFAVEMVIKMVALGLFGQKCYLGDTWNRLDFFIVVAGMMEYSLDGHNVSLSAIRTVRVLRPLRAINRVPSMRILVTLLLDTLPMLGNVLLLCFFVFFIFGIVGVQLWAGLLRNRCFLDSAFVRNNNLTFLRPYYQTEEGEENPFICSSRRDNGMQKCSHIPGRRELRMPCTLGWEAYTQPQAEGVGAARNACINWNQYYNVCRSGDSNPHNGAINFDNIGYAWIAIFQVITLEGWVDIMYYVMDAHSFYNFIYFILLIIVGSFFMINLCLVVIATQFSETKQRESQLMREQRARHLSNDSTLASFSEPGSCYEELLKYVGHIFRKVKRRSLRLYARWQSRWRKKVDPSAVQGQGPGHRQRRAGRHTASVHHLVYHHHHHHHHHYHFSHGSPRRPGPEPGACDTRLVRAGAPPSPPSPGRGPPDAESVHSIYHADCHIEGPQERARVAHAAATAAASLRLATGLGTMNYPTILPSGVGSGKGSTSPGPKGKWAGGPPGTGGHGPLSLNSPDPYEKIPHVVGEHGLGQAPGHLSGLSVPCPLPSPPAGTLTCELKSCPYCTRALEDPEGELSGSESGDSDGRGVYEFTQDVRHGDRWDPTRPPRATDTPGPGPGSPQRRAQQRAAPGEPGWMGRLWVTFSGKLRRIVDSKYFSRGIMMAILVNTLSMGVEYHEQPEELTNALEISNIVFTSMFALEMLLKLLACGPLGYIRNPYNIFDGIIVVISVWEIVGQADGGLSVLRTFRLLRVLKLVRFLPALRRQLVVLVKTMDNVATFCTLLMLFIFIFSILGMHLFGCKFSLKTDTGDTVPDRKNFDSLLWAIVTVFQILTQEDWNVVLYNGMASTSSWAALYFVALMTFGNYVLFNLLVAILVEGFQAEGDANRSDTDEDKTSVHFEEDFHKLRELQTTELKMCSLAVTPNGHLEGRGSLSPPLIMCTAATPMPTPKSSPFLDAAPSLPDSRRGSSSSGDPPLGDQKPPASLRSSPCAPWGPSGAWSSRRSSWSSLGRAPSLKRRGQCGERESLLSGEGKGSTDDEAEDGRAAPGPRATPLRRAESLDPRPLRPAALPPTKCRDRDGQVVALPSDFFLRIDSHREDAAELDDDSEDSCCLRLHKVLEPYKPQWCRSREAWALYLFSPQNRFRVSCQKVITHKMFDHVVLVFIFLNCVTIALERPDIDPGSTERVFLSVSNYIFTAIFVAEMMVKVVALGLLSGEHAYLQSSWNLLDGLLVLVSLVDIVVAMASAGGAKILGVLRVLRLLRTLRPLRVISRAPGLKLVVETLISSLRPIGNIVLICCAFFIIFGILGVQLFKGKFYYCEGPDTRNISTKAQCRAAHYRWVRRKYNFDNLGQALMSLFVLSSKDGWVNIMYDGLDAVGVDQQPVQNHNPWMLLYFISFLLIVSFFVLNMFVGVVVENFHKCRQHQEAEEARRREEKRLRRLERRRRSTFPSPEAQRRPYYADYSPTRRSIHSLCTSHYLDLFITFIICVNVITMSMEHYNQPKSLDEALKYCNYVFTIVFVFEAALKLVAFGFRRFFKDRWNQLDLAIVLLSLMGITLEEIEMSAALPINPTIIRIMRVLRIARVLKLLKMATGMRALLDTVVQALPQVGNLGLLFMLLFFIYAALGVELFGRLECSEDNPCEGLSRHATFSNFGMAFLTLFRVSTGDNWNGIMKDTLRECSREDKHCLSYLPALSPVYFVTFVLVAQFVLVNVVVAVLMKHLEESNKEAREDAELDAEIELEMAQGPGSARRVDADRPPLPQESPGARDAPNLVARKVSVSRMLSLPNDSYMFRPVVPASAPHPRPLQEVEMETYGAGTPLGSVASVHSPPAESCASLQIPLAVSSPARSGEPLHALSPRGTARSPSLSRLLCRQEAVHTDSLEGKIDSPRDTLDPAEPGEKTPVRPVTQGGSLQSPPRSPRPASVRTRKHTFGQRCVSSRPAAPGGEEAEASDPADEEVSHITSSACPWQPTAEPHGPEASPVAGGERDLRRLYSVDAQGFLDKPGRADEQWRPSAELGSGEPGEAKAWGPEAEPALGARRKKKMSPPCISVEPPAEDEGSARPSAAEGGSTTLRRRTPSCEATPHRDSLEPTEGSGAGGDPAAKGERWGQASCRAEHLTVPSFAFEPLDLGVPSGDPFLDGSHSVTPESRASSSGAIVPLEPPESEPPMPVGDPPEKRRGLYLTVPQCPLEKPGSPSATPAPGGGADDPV

Rattus norvegicus [3] = assay: Plasma concentration in SNL rat at 100 mg/kg, po; assay type: ADME, organism-based; design: dose 100 mg/kg, route oral; details: in vivo
Cytochrome P450 3A4 = Cytochrome P450 3A4 (Homo sapiens, UniProt P08684); assay: Inhibition of CYP3A4 coincubated with compound; assay type: ADME; details: read-out: INH
Cytochrome P450 3A4, sequence (P08684 whole entry): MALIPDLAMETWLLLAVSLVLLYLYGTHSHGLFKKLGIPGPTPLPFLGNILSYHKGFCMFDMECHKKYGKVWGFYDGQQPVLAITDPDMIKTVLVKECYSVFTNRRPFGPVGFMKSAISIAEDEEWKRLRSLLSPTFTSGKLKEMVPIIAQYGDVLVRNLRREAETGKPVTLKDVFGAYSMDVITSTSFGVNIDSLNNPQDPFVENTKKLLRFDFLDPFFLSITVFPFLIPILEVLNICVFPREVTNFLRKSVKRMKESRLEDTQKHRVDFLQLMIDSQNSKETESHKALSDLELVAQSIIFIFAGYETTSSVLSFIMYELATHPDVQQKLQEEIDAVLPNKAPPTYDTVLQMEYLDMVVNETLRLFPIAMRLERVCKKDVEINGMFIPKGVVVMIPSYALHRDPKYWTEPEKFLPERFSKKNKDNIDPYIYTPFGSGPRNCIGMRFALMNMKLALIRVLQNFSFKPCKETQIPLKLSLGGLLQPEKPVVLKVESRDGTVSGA

Cytochrome P450 2D6 [4] = target: T2, Cytochrome P450 2D6 (Homo sapiens, UniProt P10635); assay: Inhibition of CYP2D6 coincubated with compound; assay type: ADME
T2 sequence (P10635 whole entry): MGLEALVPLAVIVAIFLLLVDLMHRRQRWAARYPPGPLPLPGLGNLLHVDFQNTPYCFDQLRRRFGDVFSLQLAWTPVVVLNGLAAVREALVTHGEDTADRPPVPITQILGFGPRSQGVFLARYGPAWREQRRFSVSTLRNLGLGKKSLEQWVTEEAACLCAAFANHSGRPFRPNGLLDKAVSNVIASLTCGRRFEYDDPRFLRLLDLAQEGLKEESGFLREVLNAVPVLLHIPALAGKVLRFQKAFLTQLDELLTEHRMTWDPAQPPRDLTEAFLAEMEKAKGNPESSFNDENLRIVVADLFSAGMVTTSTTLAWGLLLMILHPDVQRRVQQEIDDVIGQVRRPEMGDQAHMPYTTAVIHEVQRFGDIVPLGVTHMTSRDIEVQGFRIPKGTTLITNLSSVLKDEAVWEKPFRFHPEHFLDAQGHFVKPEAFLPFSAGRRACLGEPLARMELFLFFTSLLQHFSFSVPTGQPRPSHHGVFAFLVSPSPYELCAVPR

[5] = Permeability across human Caco-2 cells; assay type: ADME, cell-based; details: read-out: permeability
Cytochrome P450 2D6 [6] = target: T2, Cytochrome P450 2D6; assay: Inhibition of CYP2D6 preincubated with compound; assay type: ADME
Cytochrome P450 2C9 [7] = target: T3, Cytochrome P450 2C9 (Homo sapiens, UniProt P11712); assay: Inhibition of CYP2C9 preincubated with compound; assay type: ADME; details: read-out: INH
T3 sequence (P11712 whole entry): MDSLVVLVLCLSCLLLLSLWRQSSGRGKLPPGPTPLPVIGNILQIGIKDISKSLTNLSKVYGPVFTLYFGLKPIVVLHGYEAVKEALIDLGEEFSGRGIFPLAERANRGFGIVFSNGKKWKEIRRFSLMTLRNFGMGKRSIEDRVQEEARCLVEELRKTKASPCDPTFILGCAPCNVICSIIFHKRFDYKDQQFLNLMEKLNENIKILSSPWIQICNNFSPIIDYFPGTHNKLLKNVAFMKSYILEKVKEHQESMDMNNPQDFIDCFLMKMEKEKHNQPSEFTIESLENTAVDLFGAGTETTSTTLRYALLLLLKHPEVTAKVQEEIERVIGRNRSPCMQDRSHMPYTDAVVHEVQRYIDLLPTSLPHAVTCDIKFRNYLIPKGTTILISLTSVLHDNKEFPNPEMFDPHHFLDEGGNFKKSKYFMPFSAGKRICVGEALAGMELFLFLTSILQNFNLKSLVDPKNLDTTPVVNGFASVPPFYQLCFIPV

Cytochrome P450 2C9 [8] = target: T3, Cytochrome P450 2C9; assay: Inhibition of CYP2C9 coincubated with compound; assay type: ADME; details: read-out: INH
[9] = target: T1, Voltage-dependent T-type calcium channel subunit alpha-1H; assay: Inhibition of human CaV3.2 expressed in HEK293 cells at -100 mV membrane potential by whole cell path clamp method; assay type: cell-based
[10] = (§1) Protein binding in rat plasma; assay type: ADME, cell-free; details: read-out: PPB (converted)
Plasma = assay: as §1; assay type: ADME, cell-free
Homo sapiens = organism: Homo sapiens; assay: Protein binding in human plasma; details: read-out: PPB (converted)
[11] = target: Transient receptor potential cation channel subfamily V member 1 (Homo sapiens) (UniProt Q8NER1); assay: Inhibition of TRPV1 expressed in HEK293 assessed as capsaicin activation cells at 3.3 ug/mL by FLIPR assay; assay type: cell-based
Transient receptor potential cation channel subfamily V member 1 (Homo sapiens), sequence (Q8NER1 whole entry): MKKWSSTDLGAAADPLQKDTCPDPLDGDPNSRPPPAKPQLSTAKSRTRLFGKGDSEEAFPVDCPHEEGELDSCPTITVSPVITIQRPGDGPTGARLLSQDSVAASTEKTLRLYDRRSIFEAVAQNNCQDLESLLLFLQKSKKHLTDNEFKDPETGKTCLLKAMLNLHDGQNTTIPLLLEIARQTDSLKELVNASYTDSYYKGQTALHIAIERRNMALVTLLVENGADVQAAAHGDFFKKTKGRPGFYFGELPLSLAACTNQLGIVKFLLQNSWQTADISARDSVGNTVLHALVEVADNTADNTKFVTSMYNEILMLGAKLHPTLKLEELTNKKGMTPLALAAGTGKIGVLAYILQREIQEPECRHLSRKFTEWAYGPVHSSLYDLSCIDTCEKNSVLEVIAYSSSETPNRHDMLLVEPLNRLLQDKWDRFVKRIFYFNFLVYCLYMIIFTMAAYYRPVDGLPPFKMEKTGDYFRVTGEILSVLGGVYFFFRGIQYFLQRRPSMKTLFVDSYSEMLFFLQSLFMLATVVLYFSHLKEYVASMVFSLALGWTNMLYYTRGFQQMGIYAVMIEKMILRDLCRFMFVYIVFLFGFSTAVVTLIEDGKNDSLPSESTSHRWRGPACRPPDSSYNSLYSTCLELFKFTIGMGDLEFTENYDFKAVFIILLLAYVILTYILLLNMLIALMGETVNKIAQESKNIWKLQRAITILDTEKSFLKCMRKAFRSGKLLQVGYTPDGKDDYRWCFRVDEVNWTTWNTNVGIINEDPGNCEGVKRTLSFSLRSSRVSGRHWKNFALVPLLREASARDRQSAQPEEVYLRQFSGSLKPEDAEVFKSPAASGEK

Rattus norvegicus [12] = assay: In vivo inhibition of TRPV1 activation in SNL rat at 30 mg/kg, po; assay type: functional, organism-based; design: dose 30 mg/kg
Rattus norvegicus [13] = assay: In vivo inhibition of TRPV1 activation in SNL rat at 30 and 60 mg/kg, po; assay type: functional, organism-based; design: dose 60 mg/kg
Rattus norvegicus [14] = assay: In vivo inhibition of TRPV1 activation in SNL rat at 50 mg/kg, po; assay type: functional, organism-based; design: dose 50 mg/kg
Rattus norvegicus [15] = assay: In vivo inhibition of TRPV1 activation in SNL rat at 10 mg/kg, po; assay type: functional, organism-based; design: dose 10 mg/kg
Rattus norvegicus [16] = assay: Plasma concentration in SNL rat at 10 mg/kg, po; assay type: ADME, organism-based; design: dose 10 mg/kg, route oral; details: in vivo
Rattus norvegicus [17] = assay: In vivo inhibition of TRPV1 activation in SNL rat at 100 mg/kg, po; assay type: functional, organism-based; design: dose 100 mg/kg

| SMILES | IC50 [2] | IC50 [9] | fraction unbound [10] | inhibition [11] | other results |
| --- | --- | --- | --- | --- | --- |
| O=C1N(c2ccc(F)c(Cl)c2)C(c2ccccn2)C12CCN(c1nc3cc(F)c(C(F)(F)F)cc3[nH]1)CC2 (stereo in doubt; 52a) [listing 1 of 2 here] | 0.029 µM | – | – | – | AUC [1]: 0.814 µM·h; concentration (Rattus norvegicus [3]): 3.4 µM |
| CC[C@H](C)[C@H](NC(=O)N1CCC2(CC1)CN(C(C)C)C2c1ccc(Cl)cc1)C(=O)OC (stereo in doubt; 2) | 0.104 µM | 0.123 µM | – | – | IC50 (Cytochrome P450 3A4): > 30 µM; INH (Cytochrome P450 2D6 [4]): 0.9 µM; Papp [5]: 13.4 ×10⁻⁶ cm/s; INH (Cytochrome P450 2D6 [6]): 8.1 µM; IC50 (Cytochrome P450 2C9 [7]): > 30 µM; IC50 (Cytochrome P450 2C9 [8]): > 30 µM |
| N#Cc1cccc(NC(=O)N2CCC3(CC2)C(=O)N(c2cccc(Cl)c2)C3c2ccccn2)c1 (stereo in doubt; 43b) [listing 1 of 2 here] | 0.855 µM | – | 0.012 | – | – |
| N#Cc1cccc(NC(=O)N2CCC3(CC2)C(=O)N(c2cccc(Cl)c2)C3c2ccccn2)c1 (stereo in doubt; 43a) | 0.057 µM | – | – | – | PPB (Plasma): 99.2%; fraction unbound (Homo sapiens): 0.013 |
| O=C1N(c2ccc(F)c(Cl)c2)C(c2ccccn2)C12CCN(c1nc3cc(F)c(Cl)cc3[nH]1)CC2 (centres undefined) | 0.06 µM | 0.084 µM | 0.002 | 8.6% | – |
| O=C(Nc1cc(F)cc(F)c1)N1CCC2(CC1)C(=O)N(c1cccc(Cl)c1)C2c1ccccn1 (stereo in doubt; 44a) | 0.018 µM | 3.49 µM | – | – | PPB (Plasma): 98.9%; fraction unbound (Homo sapiens): 0.003 |
| O=C(Nc1ccc(F)c(F)c1)N1CCC2(CC1)C(=O)N(c1cccc(Cl)c1)C2c1ccccn1 (stereo in doubt; 42a) [listing 1 of 2 here] | – | – | – | 82.7% | inhibition (Rattus norvegicus [12]): inactive |
| O=C1N(c2ccc(F)c(Cl)c2)C(c2ccccn2)C12CCN(c1nc3ccc(Cl)cc3[nH]1)CC2 (centres undefined) | 0.078 µM | 0.071 µM | – | 86.2% | AUC [1]: 41.2 µM·h |
| N#Cc1cccc(NC(=O)N2CCC3(CC2)C(=O)N(c2cccc(Cl)c2)C3c2ccccn2)c1 (stereo in doubt; 43b) [listing 2 of 2 here] | – | – | – | 25% | inhibition (Rattus norvegicus [12]): inactive |
| O=C(Nc1cccc(C(F)(F)F)c1)N1CCC2(CC1)C(=O)N(c1ccc(F)c(F)c1)C2c1ccccn1 (stereo in doubt; 41a) | – | – | – | – | inhibition (Rattus norvegicus [12]): inactive |
| O=C(Nc1cc(F)cc(F)c1)N1CCC2(CC1)C(=O)N(c1cccc(Cl)c1)C2c1ccccn1 (stereo in doubt; 44b) [listing 1 of 2 here] | 0.2 µM | – | – | – | PPB (Plasma): 99.5% |
| O=C(Nc1cc(F)cc(F)c1)N1CCC2(CC1)C(=O)N(c1cccc(Cl)c1)C2c1ccccn1 (stereo in doubt; 44b) [listing 2 of 2 here] | – | – | – | 36% | inhibition (Rattus norvegicus [13]): inactive; inhibition (Rattus norvegicus [12]): inactive |
| O=C(Nc1ccc(F)c(F)c1)N1CCC2(CC1)C(=O)N(c1ccc(F)c(Cl)c1)C2c1ccccn1 (stereo in doubt; 40a) | 0.041 µM | 17.7 µM | 0.004 | – | – |
| O=C(Nc1ccc(F)c(F)c1)N1CCC2(CC1)C(=O)N(c1cccc(Cl)c1)C2c1ccccn1 (stereo in doubt; 42b) | 0.652 µM | – | – | – | PPB (Plasma): 99.9% |
| O=C(Nc1cc(F)cc(F)c1)N1CCC2(CC1)C(=O)N(c1ccc(F)c(Cl)c1)C2c1ccccn1 (stereo in doubt; 39b) | – | – | – | – | inhibition (Rattus norvegicus [14]): inactive; inhibition (Rattus norvegicus [15]): inactive |
| O=C(Nc1cc(F)cc(F)c1)N1CCC2(CC1)CN(c1ccc(F)c(Cl)c1)C2c1ccccn1 (stereo in doubt; 38b) | 0.291 µM | – | 0.001 | – | – |
| CN1C(=O)C2(CCN(C(=O)Nc3cc(F)cc(F)c3)CC2)C1c1ccc(Cl)cc1 (racemic) | 0.92 µM | – | 0.034 | 20.7% | – |

| SMILES | IC50 [2] | IC50 [9] | fraction unbound [10] | inhibition [11] | other results |
| --- | --- | --- | --- | --- | --- |
| CC(C)N1CC2(CCN(C(=O)Nc3cc(F)cc(F)c3)CC2)C1c1ccc(F)cc1 (racemic) | 0.172 µM | 0.995 µM | – | 46.5% | – |
| O=C(Nc1cc(F)cc(F)c1)N1CCC2(CC1)CN(C1CC1)C2c1ccc(Cl)cc1 (racemic) | 0.398 µM | – | 0.002 | – | – |
| O=C1N(c2cccc(Cl)c2)C(c2ccccn2)C12CCN(c1nc3cc(F)c(C(F)(F)F)cc3[nH]1)CC2 (centres undefined) | 0.044 µM | 0.063 µM | – | 37.9% | – |
| O=C1N(c2ccc(F)c(Cl)c2)C(c2ccccn2)C12CCN(c1nc3cc(F)c(C(F)(F)F)cc3[nH]1)CC2 (stereo in doubt; 52b) | – | – | – | 59.8% | inhibition (Rattus norvegicus [15]): inactive |
| O=C(Nc1cc(F)cc(F)c1)N1CCC2(CC1)CN(c1ccc(F)c(Cl)c1)C2c1ccccn1 (stereo in doubt; 38a) | 0.06 µM | 0.041 µM | – | – | PPB (Plasma): 99.9% |
| O=C(Nc1ccc(F)c(F)c1)N1CCC2(CC1)C(=O)N(c1cccc(Cl)c1)C2c1cccc[n+]1[O-] (stereo in doubt; form 1) | 0.698 µM | – | 0.066 | – | – |
| O=C(Nc1cccc(C(F)(F)F)c1)N1CCC2(CC1)C(=O)N(c1ccc(F)c(F)c1)C2c1ccccn1 (stereo in doubt; 411b) | 0.176 µM | 0.283 µM | 0.005 | – | concentration (Rattus norvegicus [16]): 2.1 µM |
| O=C(Nc1cc(F)cc(F)c1)N1CCC2(CC1)C(=O)N(c1ccc(F)c(Cl)c1)C2c1ccccn1 (stereo in doubt; 39a) [listing 1 of 2 here] | 0.004 µM | 0.042 µM | 0.004 | – | fraction unbound (Homo sapiens): 0.001; concentration (Rattus norvegicus [3]): 3.4 µM |
| O=C(Nc1ccc(F)c(F)c1)N1CCC2(CC1)C(=O)N(c1cccc(Cl)c1)C2c1ccccn1 (stereo in doubt; 42a) [listing 2 of 2 here] | – | – | – | – | PPB (Plasma): 98.8%; fraction unbound (Homo sapiens): 0.001 |
| C[C@H](NC(=O)N1CCC2(CC1)C(=O)N(c1cccc(F)c1)C2c1ccc(Cl)cc1)c1ccc(F)cc1 (some centres undefined) | – | – | 0.001 | 2.4% | – |
| CC[C@H](C)[C@H](NC(=O)N1CCC2(CC1)C(=O)N(c1cccc(F)c1)C2c1ccc(Cl)cc1)C(=O)OC#N (some centres undefined) | 0.035 µM | 17 µM | – | – | – |
| O=C1N(c2ccc(F)c(Cl)c2)C(c2ccccn2)C12CCN(c1nc3cc(F)c(C(F)(F)F)cc3[nH]1)CC2 (stereo in doubt; 52a) [listing 2 of 2 here] | – | – | – | 92% | inhibition (Rattus norvegicus [15]): inactive |
| CC(C)N1CC2(CCN(C(=O)Nc3ccc(F)c(F)c3)CC2)C1c1ccc(Cl)cc1 (centres undefined) | 0.174 µM | 0.34 µM | – | 64% | IC50 (Cytochrome P450 3A4): > 30 µM; INH (Cytochrome P450 2D6 [4]): 0.9 µM; Papp [5]: 18.7 ×10⁻⁶ cm/s; INH (Cytochrome P450 2D6 [6]): 8.1 µM; IC50 (Cytochrome P450 2C9 [7]): > 30 µM; IC50 (Cytochrome P450 2C9 [8]): > 30 µM |
| CN1CC2(CCN(C(=O)Nc3cc(F)cc(F)c3)CC2)C1c1ccc(F)cc1 (racemic) | 0.41 µM | – | 0.05 | 21.8% | – |
| CC(C)N1CC2(CCN(C(=O)Nc3cc(F)cc(F)c3)CC2)C1c1ccc(Cl)cc1 (centres undefined) | 0.138 µM | 0.328 µM | – | 19.1% | IC50 (Cytochrome P450 3A4): > 30 µM; INH (Cytochrome P450 2D6 [4]): 0.9 µM; Papp [5]: > 7.34 ×10⁻⁶ cm/s; INH (Cytochrome P450 2D6 [6]): 3.6 µM; IC50 (Cytochrome P450 2C9 [7]): > 30 µM; IC50 (Cytochrome P450 2C9 [8]): > 30 µM |
| O=C(Nc1cc(F)cc(F)c1)N1CCC2(CC1)C(=O)N(c1ccc(F)c(Cl)c1)C2c1ccccn1 (stereo in doubt; 39a) [listing 2 of 2 here] | – | – | – | – | inhibition (Rattus norvegicus [17]): inactive |
